These results are taken from ChEMBL document CHEMBL3751819, “Navigating into the chemical space between MGCD0103 and SAHA: novel histone deacetylase inhibitors as a promising lead” (Medchemcomm, 2015).

The test system of series [1] is HeLa. Kind of series: Induction of apoptosis in human HeLa cells assessed as viable cells at 1.25 uM after 48 hrs by annexin-V-FITC/propidium iodide staining based flow cytometry (reference value: 88.6%). The class given is functional.
Series [2] concerns HeLa. Kind of series: Induction of apoptosis in human HeLa cells assessed as early apoptotic cells at 1.25 uM after 48 hrs by annexin-V-FITC/propidium iodide staining based flow cytometry (reference value: 1.4%). The class given is functional.
The subject of series [3] is HeLa. Kind of series: Induction of apoptosis in human HeLa cells assessed as late apoptotic cells at 1.25 uM after 48 hrs by annexin-V-FITC/propidium iodide staining based flow cytometry (reference value: 9.3%). The class given is functional.
Series [4] deals with HeLa. Kind of series: Induction of apoptosis in human HeLa cells assessed as necrotic cells at 1.25 uM after 48 hrs by annexin-V-FITC/propidium iodide staining based flow cytometry (reference value: 0.693%). It counts as functional.
The subject of series [5] is HeLa. Kind of series: Induction of apoptosis in human HeLa cells assessed as viable cells at 2.5 uM after 48 hrs by annexin-V-FITC/propidium iodide staining based flow cytometry (reference value: 88.6%). It counts as functional.
Series [6] concerns HeLa. Kind of series: Induction of apoptosis in human HeLa cells assessed as early apoptotic cells at 2.5 uM after 48 hrs by annexin-V-FITC/propidium iodide staining based flow cytometry (reference value: 1.4%). It counts as functional.
The test system of series [7] is HeLa. As to the kind of experiment: Induction of apoptosis in human HeLa cells assessed as late apoptotic cells at 2.5 uM after 48 hrs by annexin-V-FITC/propidium iodide staining based flow cytometry (reference value: 9.3%). The class given is functional.
Series [8] relates to HeLa. As to the kind of experiment: Induction of apoptosis in human HeLa cells assessed as necrotic cells at 2.5 uM after 48 hrs by annexin-V-FITC/propidium iodide staining based flow cytometry (reference value: 0.693%). It counts as functional.
In series [9] the test system is HeLa. As to the kind of experiment: Induction of apoptosis in human HeLa cells assessed as viable cells at 5 uM after 48 hrs by annexin-V-FITC/propidium iodide staining based flow cytometry (reference value: 88.6%). The class given is functional.
Series [10] concerns HeLa. Kind of series: Induction of apoptosis in human HeLa cells assessed as early apoptotic cells at 5 uM after 48 hrs by annexin-V-FITC/propidium iodide staining based flow cytometry (reference value: 1.4%). It counts as functional.
Series [11] deals with HeLa. Kind of series: Induction of apoptosis in human HeLa cells assessed as late apoptotic cells at 5 uM after 48 hrs by annexin-V-FITC/propidium iodide staining based flow cytometry (reference value: 9.3%). It counts as functional.
Series [12] has as its system HeLa. As to the kind of experiment: Induction of apoptosis in human HeLa cells assessed as necrotic cells at 5 uM after 48 hrs by annexin-V-FITC/propidium iodide staining based flow cytometry (reference value: 0.693%). It counts as functional.
A short description of series [13]: Half life in artificial intestinal fluid. It counts as ADME.
Series [14] can be described thus: Half life in mouse plasma. It counts as ADME, cell-free.
The nature of series [15]: Half life in mouse microsomes. The class given is ADME, Microsome.
For series [16], the system named is A549. As to the kind of experiment: Antiproliferative activity against human A549 cells assessed as reduction in cell viability after 24 hrs by MTT assay. It counts as functional, cell-based. The note with it: A549, 24 h.
The subject of series [17] is A549. As to the kind of experiment: Antiproliferative activity against human A549 cells assessed as reduction in cell viability after 48 hrs by MTT assay. The note with it: A549, 48 h. It counts as functional, cell-based.
In series [18] the test system is A549. Kind of series: Antiproliferative activity against human A549 cells assessed as reduction in cell viability after 72 hrs by MTT assay. It counts as functional, cell-based. The following applies: A549, 72 h.
Series [19] has as its system HeLa. As to the kind of experiment: Antiproliferative activity against human HeLa cells assessed as reduction in cell viability after 24 hrs by MTT assay. The class given is functional, cell-based.
Series [20] concerns HeLa. As to the kind of experiment: Antiproliferative activity against human HeLa cells assessed as reduction in cell viability after 48 hrs by MTT assay. It counts as functional, cell-based.
For series [21], the system named is HeLa. As to the kind of experiment: Antiproliferative activity against human HeLa cells assessed as reduction in cell viability after 72 hrs by MTT assay. The class given is functional, cell-based.
Series [22] relates to HepG2. As to the kind of experiment: Antiproliferative activity against human HepG2 cells assessed as reduction in cell viability after 24 hrs by MTT assay. It counts as functional, cell-based. The note with it: HepG2, 24 h.
In series [23] the test system is HepG2. Kind of series: Antiproliferative activity against human HepG2 cells assessed as reduction in cell viability after 48 hrs by MTT assay. The following applies: HepG2, 48 h. The class given is functional, cell-based.
Series [24] concerns HepG2. As to the kind of experiment: Antiproliferative activity against human HepG2 cells assessed as reduction in cell viability after 72 hrs by MTT assay. It counts as functional, cell-based. The note with it: HepG2, 72 h.
Series [25] can be described thus: Antiproliferative activity against human HCT116 cells assessed as reduction in cell viability after 24 hrs by MTT assay. It counts as functional, cell-based. The note with it: HCT-116, 24 h.
The nature of series [26]: Antiproliferative activity against human HCT116 cells assessed as reduction in cell viability after 48 hrs by MTT assay. The class given is functional, cell-based. The following applies: HCT-116, 48 h.
Series [27] in a line: Antiproliferative activity against human HCT116 cells assessed as reduction in cell viability after 72 hrs by MTT assay. The note with it: HCT-116, 72 h. The class given is functional, cell-based.
Series [28] relates to MCF7. Kind of series: Antiproliferative activity against human MCF7 cells assessed as reduction in cell viability after 24 hrs by MTT assay. The note with it: MCF7, 24 h. The class given is functional, cell-based.
Series [29] relates to MCF7. Kind of series: Antiproliferative activity against human MCF7 cells assessed as reduction in cell viability after 48 hrs by MTT assay. The following applies: MCF7, 48 h. The class given is functional, cell-based.
Series [30] deals with MCF7. Kind of series: Antiproliferative activity against human MCF7 cells assessed as reduction in cell viability after 72 hrs by MTT assay. The following applies: MCF7, 72 h. The class given is functional, cell-based.
The target in series [31] is T1, Protein deacetylase HDAC6 (Homo sapiens) (UniProt Q9UBN7).
T1 sequence (whole entry): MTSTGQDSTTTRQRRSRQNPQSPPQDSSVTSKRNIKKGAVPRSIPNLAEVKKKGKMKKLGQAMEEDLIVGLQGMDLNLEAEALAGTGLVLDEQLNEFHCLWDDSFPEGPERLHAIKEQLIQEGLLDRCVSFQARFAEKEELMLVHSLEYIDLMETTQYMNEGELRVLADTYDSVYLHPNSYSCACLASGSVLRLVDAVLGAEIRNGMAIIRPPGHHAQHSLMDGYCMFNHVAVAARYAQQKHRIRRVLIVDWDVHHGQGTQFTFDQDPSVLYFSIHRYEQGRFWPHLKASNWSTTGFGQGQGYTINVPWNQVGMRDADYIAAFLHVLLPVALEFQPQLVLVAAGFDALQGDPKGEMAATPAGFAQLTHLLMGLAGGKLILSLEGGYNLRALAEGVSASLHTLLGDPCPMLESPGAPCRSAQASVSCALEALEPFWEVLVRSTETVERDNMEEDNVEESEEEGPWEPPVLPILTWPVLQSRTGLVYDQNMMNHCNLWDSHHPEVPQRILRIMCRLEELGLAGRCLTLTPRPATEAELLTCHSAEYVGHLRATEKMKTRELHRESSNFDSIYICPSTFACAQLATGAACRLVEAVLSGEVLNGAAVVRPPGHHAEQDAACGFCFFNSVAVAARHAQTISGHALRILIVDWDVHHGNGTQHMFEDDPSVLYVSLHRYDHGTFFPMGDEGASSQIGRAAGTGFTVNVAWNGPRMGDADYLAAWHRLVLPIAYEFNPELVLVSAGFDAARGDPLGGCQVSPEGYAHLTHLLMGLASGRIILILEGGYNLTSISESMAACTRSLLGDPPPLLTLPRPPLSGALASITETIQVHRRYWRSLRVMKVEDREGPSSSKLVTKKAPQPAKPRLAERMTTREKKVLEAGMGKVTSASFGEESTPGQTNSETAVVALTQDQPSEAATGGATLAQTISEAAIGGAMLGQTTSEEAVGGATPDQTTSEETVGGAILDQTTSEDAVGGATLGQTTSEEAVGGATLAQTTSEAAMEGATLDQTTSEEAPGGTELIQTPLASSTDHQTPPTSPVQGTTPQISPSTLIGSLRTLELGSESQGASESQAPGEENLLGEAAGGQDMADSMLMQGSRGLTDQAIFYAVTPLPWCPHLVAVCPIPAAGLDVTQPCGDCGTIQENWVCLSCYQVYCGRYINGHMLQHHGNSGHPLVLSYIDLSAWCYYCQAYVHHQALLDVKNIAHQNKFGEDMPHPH
Kind of series: Inhibition of HDAC6 in human A549 cells assessed as increase in acetylated tubulin expression at 5 uM incubated for 12 hrs by DAPI staining based immunofluorescence microscopy. The class given is cell-based.

Series [32] in a line: Half life in artificial gastric fluid. The class given is ADME.
Series [33] is described as follows: Elimination half life in po dosed patient plasma by HPLC/MS analysis. It counts as ADME, organism-based. The following applies: human, read-out: beta t1/2 (converted).
Where [34] appears, read: Homo sapiens, HeLa, 48 h, read-out: Activity.

The source made the active and inactive calls. The calls are words filed in the database; no cut-off is given here. Bounds are passed on as bounds.

Turning to `O=C(CCCCCCC(=O)Nc1ccccc1)NO` [VORINOSTAT], the Activity with HeLa [1] was determined as 85.1%; with HeLa [2] it was 4.1%; in the series with HeLa [3], 10.2%; in the series on HeLa [4], 0.654%; with HeLa [5], 77.4%; in the series on HeLa [6], 6.56%. Moreover, the Activity worked out at 15.1% in the series with HeLa [7]; 0.957% in the series with HeLa [8]; 83.9% in the series on HeLa [9]; 7.84% in the series with HeLa [10]; 7.6% with HeLa [11]; 0.61% with HeLa [12]. For the same compound, the values for the half-life in series [13], in series [14] and in series [15] were > 24 h, 3 h and 1.33 h, respectively.
For the compound `Nc1ccccc1NC(=O)c1ccc(CNc2nccc(-c3cccnc3)n2)cc1` [MOCETINOSTAT], the IC50 in the series with A549 [16] was determined as 59.9 µM; in the series with A549 [17] it was 14.6 µM; in the series with A549 [18], 11.9 µM; in the series with HeLa [19], 43.8 µM; in the series on HeLa [20] it was 3.32 µM; in the series on HeLa [21], 3.42 µM. In addition, the IC50 was found to be 5.79 µM in the series with HepG2 [22]; 4.05 µM in the series with HepG2 [23]; 4.25 µM in the series with HepG2 [24]; 29.7 µM in series [25]; 1.24 µM in [26]; 3.51 µM in [27]. The IC50 in the series on MCF7 [28] worked out at 84.2 µM; in the series on MCF7 [29], 56.8 µM; in the series on MCF7 [30], 2.49 µM. In addition, the viability at 1.25 µM with HeLa [1] (setting [34]) is 87.1%. The Activity was found to be 3.9% in the series with HeLa [2]; 8.23% in the series on HeLa [3]; 0.78% with HeLa [4]; 9.13% in the series on HeLa [6]; 5.98% with HeLa [7]; 0.437% in the series with HeLa [8]. For the same compound, the Activity was determined as 12.5% with HeLa [10], 11.6% in the series with HeLa [11] and 1.33% in the series on HeLa [12]. Also, in the series with HeLa [5] (setting [34]), the viability at 2.5 µM is 84.5%. Moreover, the viability at 5 µM with HeLa [9] (setting [34]) stood at 74.6%. Also, the inhibition entry in [31] is “inactive”. The half-life in [32] is > 24 h; in [13] it was > 24 h; in series [14] it was 10 h; in [15], 2.62 h; in [33], 9 h.
